{
  "source": "patent US11083770B2",
  "about": "“Medical preparation and method for enhancing tissue oxygenation in case of diabetic foot” (priority 2017, dated 2021)",
  "key": {"white mongrel male mice": {"tested_on": "white mongrel male mice", "assay": "Acute toxicity, Kerber's method, single intramuscular dose"}, "white mongrel rats": {"tested_on": "white mongrel rats", "settings": "rat, in vivo"}},
  "note": "Peptide text beside a SMILES is read from it.",
  "data": [
    {"compound": "N[C@@H](CCC(=O)O)C(=O)N[C@@H](Cc1c[nH]c2ccccc12)C(=O)O", "note": "[L-Glu-L-Trp, L-glutamic-L-tryptophan acid] (H-Glu-Trp-OH; N-terminus and C-terminus assumed)", "values": [
      {"measurement": "Acute toxic reactions", "setting": "white mongrel male mice; doses exceeding the therapeutic dose by several thousand times", "value": "does not cause acute toxic reactions"},
      {"measurement": "Death of animals", "setting": "white mongrel male mice; mice, single i.m. 1, 2, 3, 4, 5 mg/kg, within 72 hours and further 14 days", "value": "Death of animals did not take place in any of the groups"},
      {"measurement": "Side effects from long-term administration", "setting": "white mongrel rats", "value": "absence of side effects"}
    ]}
  ]
}
